Experiment [1] has as its system HCT116 FOP control reporter cell line. The experiment is described as follows: HCT116 FOPFlash control reporter assay (FOP control vector, non-functional TCF elements). It counts as cell-based. The settings on record: HCT116 FOP control reporter cells, 36 hours incubation, luciferase expression. The source says:
In a parallel approach, HCT116 cells were cotransfected with the FOP control vector and pcDNA3. The FOP vector is identical to the TOP construct, but it contains instead of functional TCF elements a randomized, non-functional sequence. For this transfection a stable transfected cell line was generated as well.

In experiment [2] the test system is constitutive active colorectal cancer cell (CRC) Wnt pathway. Description: HCT116 TOPFlash cellular reporter assay (Super TopFlash luciferase), constitutive active Wnt pathway. In kind it is cell-based. The settings on record: HCT116 TOP reporter cells, 36 hours incubation, luciferase expression. The procedure:
In order to discover and characterize small molecules which inhibit the constitutive active colorectal cancer cell (CRC) Wnt pathway, a cellular reporter assay was employed. […] Stable transfectants were generated by cotransfection with pcDNA3 and selection of stable transfected cells with 1 mg/ml G418.

We go through 27 compounds from patent US10130633B2, “Compounds” (BAYER PHARMA AKTIENGESELLSCHAFT, priority 2013, dated 2018).

As to `COCc1ccc(C(=O)Nc2nnc(-c3ccccc3)s2)cc1NC(=O)CN1CCN(C2CC2)CC1` [Example 84, 3-{[(4-cyclopropylpiperazin-1-yl)acetyl]amino}-4-(methoxymethyl)-N-(5-phenyl-1,3,4-thiadiazol-2-yl)benzamide], the concentration for half-maximal inhibition (IC50) in experiment [1] (Homo sapiens, HCT-116, 36 h) was ≥ 50000 nM; in experiment [2] (Homo sapiens, HCT-116, 36 h) it was 453 nM.
Consider `O=C(CN1CCOCC1)Nc1cc(C(=O)Nc2ccc(-c3ccccc3F)nc2)ccc1OC(F)F` [Example 237, 4-(difluoromethoxy)-N-[6-(2-fluorophenyl)pyridin-3-yl]-3-[(morpholin-4-ylacetyl)amino]benzamide], for which the half-inhibitory concentration (IC50) in experiment [1] (Homo sapiens, HCT-116, 36 h) came to 13000 nM; in experiment [2] (Homo sapiens, HCT-116, 36 h) it was 139 nM.
The corresponding values for `COC(=O)c1ccc(C(=O)Nc2nnc(-c3ccccc3)s2)cc1NC(=O)CN1CCOCC1` [Example 106, methyl 2-[(morpholin-4-ylacetyl)amino]-4-[(5-phenyl-1,3,4-thiadiazol-2-yl)carbamoyl]benzoate] are ≥ 50000 nM and 285 nM.
Consider `CN1CCN(CC(=O)Nc2cc(C(=O)Nc3nnc(-c4ccccc4)s3)ccc2OCC2CC2)CC1` [Example 259, 4-(cyclopropylmethoxy)-3-{[(4-methylpiperazin-1-yl)acetyl]amino}-N-(5-phenyl-1,3,4-thiadiazol-2-yl)benzamide], for which the IC50 was ≥ 50000 nM in experiment [1] (Homo sapiens, HCT-116, 36 h) and 119 nM in experiment [2] (Homo sapiens, HCT-116, 36 h).
The like results for `CC(C(=O)Nc1cc(C(=O)Nc2nnc(-c3ccccc3)s2)ccc1C(F)(F)F)N1CCOCC1` (stereo not drawn) [Example 128, 3-{[2-(morpholin-4-yl)propanoyl]amino}-N-(5-phenyl-1,3,4-thiadiazol-2-yl)-4-(trifluoromethyl)benzamide] were, in that order, ≥ 50000 nM and 710 nM.
Regarding `CC(C(=O)Nc1cc(NC(=O)c2ccc(-c3cccc(F)c3)nc2)ccc1OC(F)(F)F)N1CCOCC1` (stereo not drawn) [Example 189, 6-(3-fluorophenyl)-N-[3-{[2-(morpholin-4-yl)propanoyl]amino}-4-(trifluoromethoxy)phenyl] nicotinamide], the IC50 worked out at 10000 nM in experiment [1] and 138 nM in experiment [2] (Homo sapiens, HCT-116, 36 h).
Consider `COc1ccc(C(=O)Nc2ccc(-c3ccccc3F)nc2)cc1NC(=O)C1(N2CCOCC2)CCC1` [Example 82, N-[6-(2-fluorophenyl)pyridin-3-yl]-4-methoxy-3-({[1-(morpholin-4-yl)cyclobutyl]carbonyl}amino)benzamide], for which the IC50 was ≥ 50000 nM in experiment [1] (Homo sapiens, HCT-116, 36 h) and 2550 nM in experiment [2] (Homo sapiens, HCT-116, 36 h).
As for `COc1ccc(C(=O)Nc2nnc(-c3ccccc3)s2)cc1NC(=O)CN1CCN(C)CC1` [Example 91, 4-methoxy-3-{[(4-methylpiperazin-1-yl)acetyl]amino}-N-(5-phenyl-1,3,4-thiadiazol-2-yl)benzamide], the IC50 turned out to be 44000 nM in experiment [1] (Homo sapiens, HCT-116, 36 h) and 650 nM in experiment [2] (Homo sapiens, HCT-116, 36 h).
Regarding `CC(C(=O)Nc1cc(C(=O)Nc2ccc(-c3ccc(N(C)C)cc3)nc2)ccc1OC(F)(F)F)N1CCOCC1` (stereo not drawn) [Example 114, N-{6-[4-(dimethylamino)phenyl]pyridin-3-yl}-3-{[2-(morpholin-4-yl)propanoyl]amino}-4-(trifluoromethoxy)benzamide], the IC50 is ≥ 50000 nM in experiment [1] (Homo sapiens, HCT-116, 36 h) and 46 nM in experiment [2] (Homo sapiens, HCT-116, 36 h).
The corresponding values for `O=C(CN1CCOCC1)Nc1cc(C(=O)Nc2ccc(-c3ccccc3)nc2)ccc1C(F)(F)F` [Example 13, 3-[(morpholin-4-ylacetyl)amino]-N-(6-phenylpyridin-3-yl)-4-(trifluoromethyl)benzamide] are ≥ 50000 nM and 362 nM.
For the compound `CC(C(=O)Nc1cc(C(=O)Nc2nnc(-c3ccccc3)s2)ccc1OC(F)(F)F)N1CCN(C2CC2)CC1` (stereo not drawn) [Example 234, 3-{[2-(4-cyclopropylpiperazin-1-yl)propanoyl]amino}-N-(5-phenyl-1,3,4-thiadiazol-2-yl)-4-(trifluoromethoxy)benzamide], the IC50 in experiment [1] (Homo sapiens, HCT-116, 36 h) is 40500 nM; in experiment [2] (Homo sapiens, HCT-116, 36 h), 635 nM.
Turning to `O=C(CN1CCOCC1)Nc1cc(C(=O)Nc2nnc(-c3ccccc3)s2)ccc1OCC1CC1` [Example 268, 4-(cyclopropylmethoxy)-3-[(morpholin-4-ylacetyl)amino]-N-(5-phenyl-1,3,4-thiadiazol-2-yl)benzamide], the IC50 is ≥ 50000 nM in experiment [1] (Homo sapiens, HCT-116, 36 h) and 365 nM in experiment [2] (Homo sapiens, HCT-116, 36 h).
The corresponding values for `O=C(CN1CCOCC1)Nc1cc(C(=O)Nc2nnc(-c3cccc(Cl)c3)s2)ccc1OC(F)(F)F` [Example 154, N-[5-(3-chlorophenyl)-1,3,4-thiadiazol-2-yl]-3-[(morpholin-4-ylacetyl)amino]-4-(trifluoromethoxy)benzamide] are ≥ 50000 nM and 420 nM.
The like results for `CC(C(=O)Nc1cc(NC(=O)c2cnc(-c3ccccc3)s2)ccc1OC(F)(F)F)N1CCOCC1` (stereo not drawn) [Example 255, N-[3-{[2-(morpholin-4-yl)propanoyl]amino}-4-(trifluoromethoxy)phenyl]-2-phenyl-1,3-thiazole-5-carboxamide] were, in that order, ≥ 50000 nM and 2100 nM.
The corresponding values for `C[C@@H]1CN(CC(=O)Nc2cc(C(=O)Nc3ccc(-c4ccccc4F)nc3)ccc2OC(F)(F)F)CCN1C` [Example 164, 3-({[(3R)-3,4-dimethylpiperazin-1-yl]acetyl}amino)-N-[6-(2-fluorophenyl)pyridin-3-yl]-4-(trifluoromethoxy)benzamide] are ≥ 50000 nM and 220 nM.
For the compound `O=C(CN1CCOCC1)Nc1cc(C(=O)Nc2nnc(-c3ccccc3)s2)ccc1OC(F)F` [Example 239, 4-(difluoromethoxy)-3-[(morpholin-4-ylacetyl)amino]-N-(5-phenyl-1,3,4-thiadiazol-2-yl)benzamide], the IC50 is ≥ 50000 nM in experiment [1] (Homo sapiens, HCT-116, 36 h) and 2890 nM in experiment [2] (Homo sapiens, HCT-116, 36 h).
`CC(C(=O)Nc1cc(C(=O)Nc2ccc(-c3cccc(F)c3)nc2)ccc1OC(F)(F)F)N1C[C@@H]2C[C@H]1CO2` (relative stereo) [Example 244, N-[6-(3-fluorophenyl)pyridin-3-yl]-3-({(2S*)-2-[(1S,4S)-2-oxa-5-azabicyclo[2.2.1]hept-5-yl]propanoyl}amino)-4-(trifluoromethoxy)benzamide]: the IC50 was ≥ 50000 nM in experiment [1] and 120 nM in experiment [2].
As to `O=C(CN1CCN(CC(F)(F)F)CC1)Nc1cc(C(=O)Nc2ccc(-c3ccccc3F)nc2)ccc1OC(F)(F)F` [Example 233, N-[6-(2-fluorophenyl)pyridin-3-yl]-3-({[4-(2,2,2-trifluoroethyl)piperazin-1-yl]acetyl}amino)-4-(trifluoromethoxy)benzamide], the half-inhibitory concentration (IC50) in experiment [1] (Homo sapiens, HCT-116, 36 h) is ≥ 50000 nM; in experiment [2] (Homo sapiens, HCT-116, 36 h) it was 985 nM.
The like results for `O=C(Cc1ccccn1)Nc1cc(C(=O)Nc2ccc(-c3ccccc3F)nc2)ccc1OC1CC1` [Example 238, 4-(cyclopropyloxy)-N-[6-(2-fluorophenyl)pyridin-3-yl]-3-[(pyridin-2-ylacetyl)amino]benzamide] were, in that order, ≥ 50000 nM and 1750 nM.
The corresponding values for `O=C(CN1CCOCC1)Nc1cc(C(=O)Nc2nc(-c3ccccc3)no2)ccc1OC(F)(F)F` [Example 125, 3-[(morpholin-4-ylacetyl)amino]-N-(3-phenyl-1,2,4-oxadiazol-5-yl)-4-(trifluoromethoxy)benzamide] are ≥ 50000 nM and 1700 nM.
In the case of `O=C(CN1CCOCC1)Nc1cc(C(=O)Nc2ccc(-c3ccccc3F)nc2)ccc1OC(F)(F)F` [Example 5, N-[6-(2-fluorophenyl)pyridin-3-yl]-3-[(morpholin-4-ylacetyl)amino]-4-(trifluoromethoxy)benzamide], the concentration for half-maximal inhibition (IC50) in experiment [1] (Homo sapiens, HCT-116, 36 h) was ≥ 50000 nM; in experiment [2] (Homo sapiens, HCT-116, 36 h) it was 40.3 nM.
In the case of `CC(C(=O)Nc1cc(NC(=O)c2ccc(-c3ccccc3F)nc2)ccc1OC(F)(F)F)N1CCOCC1` (stereo not drawn) [Example 224, 6-(2-fluorophenyl)-N-[3-{[2-(morpholin-4-yl)propanoyl]amino}-4-(trifluoromethoxy)phenyl] nicotinamide], the half-inhibitory concentration (IC50) in experiment [1] was ≥ 50000 nM; in experiment [2] it was 382 nM.
On to `CC(C(=O)Nc1cc(C(=O)Nc2ccc(-c3ccc(C(F)F)cc3)nc2)ccc1OC(F)(F)F)N1CCOCC1` (stereo not drawn) [Example 112, N-{6-[4-(difluoromethyl)phenyl]pyridin-3-yl}-3-{[2-(morpholin-4-yl)propanoyl]amino}-4-(trifluoromethoxy)benzamide], for which the IC50 in experiment [1] (Homo sapiens, HCT-116, 36 h) was ≥ 50000 nM; in experiment [2] (Homo sapiens, HCT-116, 36 h), 270 nM.
In the case of `CN1CCN(CC(=O)Nc2cc(C(=O)Nc3ccc(-c4ccccc4F)nc3)ccc2C(F)(F)F)CC1` [Example 210, N-[6-(2-fluorophenyl)pyridin-3-yl]-3-{[(4-methylpiperazin-1-yl)acetyl]amino}-4-(trifluoromethyl)benzamide], the IC50 is 29500 nM in experiment [1] (Homo sapiens, HCT-116, 36 h) and 152 nM in experiment [2] (Homo sapiens, HCT-116, 36 h).
With `O=C(CN1CCOCC1)Nc1cc(C(=O)Nc2nnc(-c3cccc(F)c3)s2)ccc1OC(F)(F)F` [Example 153, N-[5-(3-fluorophenyl)-1,3,4-thiadiazol-2-yl]-3-[(morpholin-4-ylacetyl)amino]-4-(trifluoromethoxy)benzamide], the IC50 in experiment [1] (Homo sapiens, HCT-116, 36 h) worked out at 30000 nM; in experiment [2] (Homo sapiens, HCT-116, 36 h), 132 nM.
The like results for `COc1ccc(NC(=O)c2ccc(-c3ccccc3F)nc2)cc1NC(=O)CN1CCOCC1` [Example 31, 6-(2-fluorophenyl)-N-{4-methoxy-3-[(morpholin-4-ylacetyl)amino]phenyl}nicotinamide] were, in that order, 36000 nM and 805 nM.
The corresponding values for `CN(C)C1(C(=O)Nc2cc(C(=O)Nc3ccc(-c4ccccc4F)nc3)ccc2OC2CC2)CC1` [Example 140, 4-(cyclopropyloxy)-3-({[1-(dimethylamino)cyclopropyl]carbonyl}amino)-N-[6-(2-fluorophenyl)pyridin-3-yl]benzamide] are 10000 nM and 293 nM.
